The values that follow come from patent US20140323500A1, “NADPH OXIDASE 4 INHIBITORS AND USE THEREOF” (GENKYOTEX SA, priority 2011, published 2014).

As a reminder, the Ki is a dissociation constant, usually derived from enzyme kinetics or from competition with a known ligand.

The assay deals with T1, human Nox2 (Homo sapiens, UniProt P04839).
T1 construct: host or cells: T-REx-CHO (hNOX2 T-REx-CHO), tetracycline-induced; membrane fraction
T1 sequence (P04839 2-570 limits assumed): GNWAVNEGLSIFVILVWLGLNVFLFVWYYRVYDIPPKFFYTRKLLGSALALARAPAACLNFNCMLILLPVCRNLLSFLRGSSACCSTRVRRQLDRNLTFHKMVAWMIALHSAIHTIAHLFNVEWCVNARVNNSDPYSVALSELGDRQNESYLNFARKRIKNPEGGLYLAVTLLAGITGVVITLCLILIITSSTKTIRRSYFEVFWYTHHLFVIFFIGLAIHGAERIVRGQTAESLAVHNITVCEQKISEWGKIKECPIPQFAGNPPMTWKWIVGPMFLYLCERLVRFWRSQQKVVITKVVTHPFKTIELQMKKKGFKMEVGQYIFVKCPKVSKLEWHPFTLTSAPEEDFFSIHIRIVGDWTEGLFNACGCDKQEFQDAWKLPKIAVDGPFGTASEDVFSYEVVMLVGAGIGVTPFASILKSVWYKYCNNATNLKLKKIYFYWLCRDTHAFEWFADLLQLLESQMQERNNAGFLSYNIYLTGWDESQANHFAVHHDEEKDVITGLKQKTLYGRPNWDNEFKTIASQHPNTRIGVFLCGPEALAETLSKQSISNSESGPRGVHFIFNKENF
T1 sequence (P13498 2-195 partner limits assumed): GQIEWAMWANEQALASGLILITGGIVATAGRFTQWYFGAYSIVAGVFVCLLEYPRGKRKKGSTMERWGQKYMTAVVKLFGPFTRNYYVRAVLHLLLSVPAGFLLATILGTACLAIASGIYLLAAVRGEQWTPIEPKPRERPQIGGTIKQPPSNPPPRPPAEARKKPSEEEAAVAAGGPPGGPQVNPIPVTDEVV
Put plainly: ROS production by membranes expressing human Nox2, cell-free Amplex Red assay. The class given is biochemical. As to conditions: cell-free membranes, Amplex Red; Cheng-Prusoff; average of at least three experiments in triplicate; read-out: Ki hNox2. A digest of the protocol:
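Membranes from tetracycline-induced (1 μg/ml, 24 h) T-REx-CHO cells stably expressing hNox2 with p22 and cofactors, incubated in PBS with Amplex Red, HRP and cofactors; NADPH starts ROS production. Compounds 1 nM–100 μM, 20 min at 37 °C, then fluorescence (544/590 nm) read for 10 min; Ki by Cheng-Prusoff.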

Turning to `COc1ccc(-c2c3c(=O)n(-c4ccccc4OC)[nH]c3cc(=O)n2Cc2cccnc2)c(F)c1` [Compound (1), 4-(2-fluoro-4-methoxyphenyl)-2-(2-methoxyphenyl)-5-(pyridin-3-ylmethyl)-1H-pyrazolo[4,3-c]pyridine-3,6(2H,5H)-dione], the Ki came out at 813 nM.
